Like-named read-outs stand apart in the source and are kept apart here.
Experiment: Pharmacokinetic study in healthy adults of single vs. multiple oral doses of colchicine tablets (Example 1);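 note: Single-dose and multiple-dose periods given to the same subjects, with a 14-day washout between the two periods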
Format: in vivo, human
Details: for Vd/F / half-life / Tmax / AUC(0-inf) / AUC(0-t) / AUC / Cmax: human, plasma, 0.6 mg; for Vd/F: Vd = CL/Ke, calculated from mean values, read-out: Vd/F, Mean (% CV)
[1] = multiple (b.i.d.) oral doses colchicine 0.6 mg for 10 days, Day 25, healthy adults N=13, plasma, median

Description: Subjects received a light breakfast served 60 minutes following dose administration in the morning and the evening dose was administered 90 minutes after an evening meal on Days 15 through 24 only. […] Study periods were separated by a 14-day washout. Following the single dose and the last dose of the multiple dose regimen (beginning on the mornings of Day 1 and Day 25, respectively), blood samples were collected (6 mL each) from each subject within 1 hour prior to dosing and after dose administration at study hours 0.5, 1, 1.5, 2, 3, 4, 6, 8, 10, 12, and 24 (while confined) and 36, 48, 72, and 96 (on an outpatient basis).
All subjects completed both dosing periods according to protocol.
In tables, the parameter CL/F denotes the apparent total body clearance after administration, calculated as Total Dose/Total AUC0-tau; and Vd/F denotes the apparent total volume of distribution after administration, calculated as Total Dose/(Total AUC∞×Kel).
Pharmacokinetic parameters referred to herein describe the in vivo characteristics of drug (or a metabolite or a surrogate marker for the drug) over time. These include plasma concentration (C), as well as Cmax, Cn, C24, Tmax, and AUC. “Cmax” is the measured plasma concentration of the active agent at the point of maximum, or peak, concentration. “Cmin” is the measured plasma concentration of the active agent at the point of minimum concentration. “Cn” is the measured plasma concentration of the active agent at about n hours after administration. […] The term “Tmax” refers to the time from drug administration until Cmax is reached. “AUC” is the area under the curve of a graph of the measured plasma concentration of an active agent vs. time, measured from one time point to another time point. […] Time t can be the last time point with measurable plasma concentration for an individual formulation. The AUC0-∞, AUC∞ or AUC0-inf is the calculated area under the curve of plasma concentration versus time from time 0 to time infinity.

COc1cc2c(c(OC)c1O)-c1ccc(OC)c(=O)cc1[C@@H](NC(C)=O)CC2 [2-O-demethylcolchicine]
metabolite plasma concentration (after colchicine 0.6 mg single and multiple doses, LOQ 0.2 ng/mL, 13 subjects): < 0.2 ng/mL

COc1cc2c(c(OC)c1OC)-c1ccc(OC)c(=O)cc1[C@@H](NC(C)=O)CC2 [Colchicine, (−)-N-[(7S,12aS)-1,2,3,10-tetramethoxy-9-oxo-5,6,7,9-tetrahydrobenzo[a]heptalen-7-yl]-acetamide]
attainment of steady state (trough plasma concentrations) (0.6 mg b.i.d., most subjects): by approximately the eighth day of dosing
elimination half-life (calculated following a single oral dose, stated not to be an accurate estimate): approximately 5 hours
secondary colchicine peak (following a single dose or upon multiple dosing, individual subject data): no subject experienced a secondary colchicine peak
apparent volume of distribution (healthy adults, oral, single dose): 540 L
Vd/F (oral, colchicine 0.6 mg b.i.d. × 10 days, Day 25): 1150 L
Vd/F (oral, colchicine 0.6-mg single dose, Day 1, N=13): 341 L
half-life (oral, repeated dosing 0.6 mg b.i.d., read-out: terminal elimination half life (converted)): 26.6 h
half-life (po, multiple (b.i.d.) oral doses colchicine 0.6 mg for 10 days, Day 25, healthy adults N=13, mean, read-out: T1/2, MEAN (converted)): 26.6 h
Tmax (po, multiple (b.i.d.) oral doses colchicine 0.6 mg for 10 days, Day 25, healthy adults N=13, mean, read-out: Tmax, MEAN): 1.31 h
half-life (po, multiple (b.i.d.) oral doses colchicine 0.6 mg for 10 days, Day 25, healthy adults N=13, median, read-out: T1/2, MEDIAN (converted)): 26.5 h
Tmax (po, multiple (b.i.d.) oral doses colchicine 0.6 mg for 10 days, Day 25, healthy adults N=13, median, read-out: Tmax, MEDIAN): 1 h
AUC(0-inf) (po, multiple (b.i.d.) oral doses colchicine 0.6 mg for 10 days, Day 25, healthy adults N=13, plasma, mean, read-out: AUC0-inf, MEAN): 54.2 ng·h/mL
AUC(0-t) (po, multiple (b.i.d.) oral doses colchicine 0.6 mg for 10 days, Day 25, healthy adults N=13, plasma, mean, read-out: AUC0-t, MEAN): 43.6 ng·h/mL
AUC (po, multiple (b.i.d.) oral doses colchicine 0.6 mg for 10 days, Day 25, healthy adults N=13, plasma, mean, read-out: AUC0-τ, MEAN): 20.4 ng·h/mL
Cmax (po, multiple (b.i.d.) oral doses colchicine 0.6 mg for 10 days, Day 25, healthy adults N=13, plasma, mean, read-out: Cmax, MEAN): 3.55 ng/mL
AUC(0-inf) (po, multiple (b.i.d.) oral doses colchicine 0.6 mg for 10 days, Day 25, healthy adults N=13, plasma, median, read-out: AUC0-inf, MEDIAN): 54.1 ng·h/mL
AUC(0-t) (po, multiple (b.i.d.) oral doses colchicine 0.6 mg for 10 days, Day 25, healthy adults N=13, plasma, median, read-out: AUC0-t, MEDIAN): 41.9 ng·h/mL
AUC (po, multiple (b.i.d.) oral doses colchicine 0.6 mg for 10 days, Day 25, healthy adults N=13, plasma, median, read-out: AUC0-τ, MEDIAN): 20.4 ng·h/mL
Cmax (po, multiple (b.i.d.) oral doses colchicine 0.6 mg for 10 days, Day 25, healthy adults N=13, plasma, median, read-out: Cmax, MEDIAN): 3.73 ng/mL
half-life (po, single oral dose colchicine 0.6 mg, healthy adults N=13, mean, read-out: T1/2, MEAN (converted)): 4.95 h
half-life (po, single oral dose colchicine 0.6 mg, healthy adults N=13, median, read-out: T1/2, MEDIAN (converted)): 3.48 h
Tmax (po, single oral dose colchicine 0.6 mg, healthy adults N=13, median, read-out: Tmax, MEDIAN): 1.5 h
AUC(0-inf) (po, single oral dose colchicine 0.6 mg, healthy adults N=13, plasma, mean, read-out: AUC0-inf, MEAN): 12.3 ng·h/mL
AUC(0-t) (po, single oral dose colchicine 0.6 mg, healthy adults N=13, plasma, mean, read-out: AUC0-t, MEAN): 10.5 ng·h/mL
Cmax (po, single oral dose colchicine 0.6 mg, healthy adults N=13, plasma, mean, read-out: Cmax, MEAN): 2.45 ng/mL
AUC(0-inf) (po, single oral dose colchicine 0.6 mg, healthy adults N=13, plasma, median, read-out: AUC0-inf, MEDIAN): 11.5 ng·h/mL
AUC(0-t) (po, single oral dose colchicine 0.6 mg, healthy adults N=13, plasma, median, read-out: AUC0-t, MEDIAN): 10.6 ng·h/mL
Cmax (po, single oral dose colchicine 0.6 mg, healthy adults N=13, plasma, median, read-out: Cmax, MEDIAN): 2.48 ng/mL
Kel, MEAN (multiple (b.i.d.) oral doses colchicine 0.6 mg for 10 days, Day 25, healthy adults N=13, mean): 0.0267 h⁻¹
Kel, MEDIAN (multiple (b.i.d.) oral doses colchicine 0.6 mg for 10 days, Day 25, healthy adults N=13, median): 0.0261 h⁻¹
Cave, MEAN (multiple (b.i.d.) oral doses colchicine 0.6 mg for 10 days, Day 25, healthy adults N=13, plasma, mean): 1.69722 ng/mL
Cave, MEDIAN [1]: 1.70192 ng/mL
Cmin, MEDIAN [1]: 0.9035 ng/mL
mean Cmin concentration (observed on Day 25, 0.6 mg b.i.d. steady state regimen): 0.907 ng/mL
plasma concentrations quantifiable after a single dose (single dose 0.6 mg, 24 hours post-dose): no longer quantifiable 24 hours post-dose in all but 1 subject
Kel, MEAN (single oral dose colchicine 0.6 mg, healthy adults N=13, mean): 0.1829 h⁻¹
Kel, MEDIAN (single oral dose colchicine 0.6 mg, healthy adults N=13, median): 0.1992 h⁻¹
Cmin prior to the morning dose higher than Cmin prior to the evening dose (steady state, Day 23 and Day 24): approximately 12%

Reference: US20110046227A1, “METHODS FOR CONCOMITANT ADMINISTRATION OF […] A SECOND ACTIVE AGENT” (MUTUAL PHARMACEUTICAL COMPANY, INC., priority 2009, published 2011)
